Patent US6720346B2, “Thiazole benzamide derivatives and pharmaceutical compositions for inhibiting cell proliferation” (Agouron Pharmaceuticals, Inc., priority 2001, dated 2004)

Tests used:
human CDK4/cyclin D3 = biological target: T1, human CDK4/cyclin D3 (Homo sapiens, UniProt P11802); assay: Inhibition of CDK4/cyclin D retinoblastoma kinase activity (Ki; % inhibition); format: biochemical; details: 0.03 μM compound
T1 construct: made in house; host or cells: insect cells co-infected with baculovirus vectors
Summary of the method: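 Radiometric filter-binding read-out: Rb residues 386-928 phosphorylated by 5 nM CDK4/cyclin D3(1-264) from baculovirus-infected insect cells, 25 μM ATP, HEPES pH 7.4, 30 °C. Run 20 min, or 60 min for tight-binding inhibitors. Screening at 30 nM theoretical compound; apparent Ki by competitive-inhibition fitting.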

CDK2/cyclin A = biological target: T2, CDK2/cyclin A (Homo sapiens, UniProt P24941); assay: Inhibition of CDK2/cyclin A retinoblastoma kinase activity (Ki; % inhibition); format: biochemical; details: 0.03 μM compound
T2 construct: made in house; host or cells: CDK2: insect cells (baculovirus); cyclin A: E. coli
Summary of the method: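 Apparent Ki values came from fitting concentration-dependent activity data to competitive (or competitive tight-binding) models, and % inhibition from single 30 nM screens of library compounds. Activity was measured as ³²P/³³P incorporation from 25 μM ATP into an Rb substrate by 10 or 19 nM CDK2/delta cyclin A at 30 °C over 60–75 min, pH 7.4.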

HCT-116 cell line = assay: Inhibition of cell growth, MTT tetrazolium salt assay; format: cell-based; details: HCT-116 cells; for HCT-116 % Inhibition at 0.1 μM: 0.1 μM compound; for HCT-116 % Inhibition at 0.25 μM: 0.25 μM compound
Summary of the method: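 Growth inhibition was read as MTT-formazan absorbance at 540 nm, after 4 h with 0.2 mg/mL MTT. Before that, HCT-116 cells had been exposed 3–5 days at 37 °C to compounds in 0.5% (v/v) DMSO, added 4 h after plating. 50% and 90% inhibitory concentrations were taken from semi-log concentration–inhibition plots versus vehicle controls.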

T1 sequence (P11802 whole entry): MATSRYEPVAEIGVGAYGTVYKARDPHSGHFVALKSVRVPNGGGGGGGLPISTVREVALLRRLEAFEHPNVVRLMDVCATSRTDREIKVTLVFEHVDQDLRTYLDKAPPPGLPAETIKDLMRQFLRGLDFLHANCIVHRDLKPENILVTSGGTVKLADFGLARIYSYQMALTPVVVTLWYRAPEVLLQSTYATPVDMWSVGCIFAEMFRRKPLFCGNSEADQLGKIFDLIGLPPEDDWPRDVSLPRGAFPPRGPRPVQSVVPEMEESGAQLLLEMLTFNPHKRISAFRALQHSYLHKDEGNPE
T1 sequence (P30281 1-264 partner limits assumed): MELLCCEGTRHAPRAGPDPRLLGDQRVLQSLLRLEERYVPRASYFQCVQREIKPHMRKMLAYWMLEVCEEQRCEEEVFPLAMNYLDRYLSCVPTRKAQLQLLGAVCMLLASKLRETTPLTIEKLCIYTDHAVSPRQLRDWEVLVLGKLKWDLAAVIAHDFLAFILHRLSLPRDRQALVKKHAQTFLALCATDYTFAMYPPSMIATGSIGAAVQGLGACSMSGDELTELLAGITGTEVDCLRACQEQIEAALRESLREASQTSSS

| SMILES | CDK4 % Inhibition at 0.03 μM (human CDK4/cyclin D3) [%] | CDK2 % Inhibition at 0.03 μM (CDK2/cyclin A) [%] | HCT-116 % Inhibition at 0.1 μM (HCT-116 cell line) [%] | HCT-116 % Inhibition at 0.25 μM (HCT-116 cell line) [%] |
| --- | --- | --- | --- | --- |
| Nc1nc(Nc2ccc(C(=O)Nc3ccccc3CCO)cc2)sc1C(=O)c1c(F)cccc1F [Example G207] | 15 | 15 | 15 | 66 |
| Nc1nc(Nc2ccc(C(=O)NCc3ccc(OC(F)(F)F)cc3)cc2)sc1C(=O)c1c(F)cccc1F [Example G208] | 36 | 36 | 11 | 56 |
| CCN(Cc1ccccc1)C(=O)c1ccc(Nc2nc(N)c(C(=O)c3c(F)cccc3F)s2)cc1 [Example G209] | 16 | 9 | 9 | 50 |
| CCOC(=O)C1CCN(C(=O)c2ccc(Nc3nc(N)c(C(=O)c4c(F)cccc4F)s3)cc2)CC1 [Example G210] | 20 | 13 | 15 | 45 |
| Nc1nc(Nc2ccc(C(=O)NCCc3ccc(Cl)c(Cl)c3)cc2)sc1C(=O)c1c(F)cccc1F [Example G211] | 23 | 23 | 13 | 45 |
| COc1ccc(NC(=O)c2ccc(Nc3nc(N)c(C(=O)c4c(F)cccc4F)s3)cc2)cc1OC [Example G212] | 20 | 16 | 17 | 53 |
| Nc1nc(Nc2ccc(C(=O)Nc3ccon3)cc2)sc1C(=O)c1c(F)cccc1F [Example G213] | 9 | −1 | 16 | 49 |
| CC[C@H](NC(=O)c1ccc(Nc2nc(N)c(C(=O)c3c(F)cccc3F)s2)cc1)c1ccccc1 [Example G214] | 16 | 11 | 15 | 52 |
| COc1ccc(NC(=O)c2ccc(Nc3nc(N)c(C(=O)c4c(F)cccc4F)s3)cc2)cn1 [Example G215] | 27 | 18 | 22 | 73 |
| Nc1nc(Nc2ccc(C(=O)NCc3cccc(Cl)c3Cl)cc2)sc1C(=O)c1c(F)cccc1F [Example G216] | 36 | 29 | 16 | 54 |
| Nc1nc(Nc2ccc(C(=O)N3CCN(Cc4ccccc4)CC3)cc2)sc1C(=O)c1c(F)cccc1F [Example G217] | 34 | 17 | 8 | 51 |
| CCCCN(C)C(=O)c1ccc(Nc2nc(N)c(C(=O)c3c(F)cccc3F)s2)cc1 [Example G218] | 19 | 8 | 11 | 52 |
| C=CCNC(=O)c1ccc(Nc2nc(N)c(C(=O)c3c(F)cccc3F)s2)cc1 [Example G219] | 13 | 10 | 8 | 52 |
| COC(=O)c1ccc(NC(=O)c2ccc(Nc3nc(N)c(C(=O)c4c(F)cccc4F)s3)cc2)cc1OC [Example G220] | 12 | 10 | 18 | 54 |
| Nc1nc(Nc2ccc(C(=O)NCc3ccccc3F)cc2)sc1C(=O)c1c(F)cccc1F [Example G221] | 34 | 29 | 20 | 74 |
| CC(O)c1cccc(NC(=O)c2ccc(Nc3nc(N)c(C(=O)c4c(F)cccc4F)s3)cc2)c1 (centres unmarked) [Example G222] | 27 | 30 | 8 | 61 |
| C=C(C)CNC(=O)c1ccc(Nc2nc(N)c(C(=O)c3c(F)cccc3F)s2)cc1 [Example G223] | 19 | 14 | 14 | 50 |
| CCN(CC)C(=O)C1CCCN(C(=O)c2ccc(Nc3nc(N)c(C(=O)c4c(F)cccc4F)s3)cc2)C1 (centres unmarked) [Example G224] | 28 | 16 | 10 | 53 |
| CN(CC(O)c1ccccc1)C(=O)c1ccc(Nc2nc(N)c(C(=O)c3c(F)cccc3F)s2)cc1 (centres unmarked) [Example G225] | 41 | 36 | 0 | 51 |
| CCN(CCNC(=O)c1ccc(Nc2nc(N)c(C(=O)c3c(F)cccc3F)s2)cc1)c1cccc(C)c1 [Example G226] | 44 | 48 | 15 | 56 |
| Nc1nc(Nc2ccc(C(=O)Nc3ccc4[nH]ccc4c3)cc2)sc1C(=O)c1c(F)cccc1F [Example G227] | 17 | 28 | 17 | 84 |
| Nc1nc(Nc2ccc(C(=O)NCc3ccccc3Cl)cc2)sc1C(=O)c1c(F)cccc1F [Example G228] | 36 | 38 | 24 | 75 |
| Nc1nc(Nc2ccc(C(=O)NCCN3CCNC3=O)cc2)sc1C(=O)c1c(F)cccc1F [Example G229] | 9 | 12 | 8 | 44 |
| Nc1nc(Nc2ccc(C(=O)Nc3ccc(OC(F)(F)F)cc3)cc2)sc1C(=O)c1c(F)cccc1F [Example G230] | 20 | 8 | 19 | 52 |
| CCOC(=O)N1CCC(NC(=O)c2ccc(Nc3nc(N)c(C(=O)c4c(F)cccc4F)s3)cc2)CC1 [Example G231] | 30 | 15 | 6 | 55 |
| CCCN(CCO)C(=O)c1ccc(Nc2nc(N)c(C(=O)c3c(F)cccc3F)s2)cc1 [Example G233] | 21 | 10 | 16 | 48 |
| COc1cc(CNC(=O)c2ccc(Nc3nc(N)c(C(=O)c4c(F)cccc4F)s3)cc2)cc(OC)c1OC [Example G234] | 39 | 35 | 20 | 63 |
| Nc1nc(Nc2ccc(C(=O)Nc3ccccc3F)cc2)sc1C(=O)c1c(F)cccc1F [Example G235] | 14 | 14 | 10 | 51 |
| Nc1nc(Nc2ccc(C(=O)NCc3ccc(Cl)cc3Cl)cc2)sc1C(=O)c1c(F)cccc1F [Example G236] | 36 | 39 | 16 | 66 |
